Test results published in patent publication US8258171B2, “pH-sensitive fluorescent probe” (The University of Tokyo, priority 2006, dated 2012).

Legend:
[1] = Optical characteristics of pH-sensitive fluorescent probes (absorption, emission, fluorescence quantum yield); assay type: physicochemical; conditions: for Φfl (fluorescence quantum yield): fluorescein (Φfl = 0.85) as reference
Method: (§1) Optical characteristics of the compounds of the present invention, 3a (H2NBDP-PH), 3b (DiMeNBDP-PH), and 3c (DiEtNBDP-PH), and a compound not having an anilinic amino group as a pH detecting moiety, 3d (PhBDP-PH), as a control compound were measured.

[2] = pH-dependent change of fluorescence quantum yield and pKa by Henderson-Hasselbach equation; assay type: physicochemical; conditions: for pKa: Determined with Henderson-Hasselbach equation using fluorescence quantum yield; for pH-dependency of fluorescence intensity (fluorescence quantum yield): FIG. 1
Method: as §1

[3] = N-protonated form, pH 1.47 for 3a, pH 2.00 for 3b and 3c
[4] = control compound without anilinic amino group, no form or pH given

Row | Structure (SMILES) | Stokes' shift ([1]; N-nonprotonated form, pH 9.00) [nm] | ε ([1]; N-nonprotonated form, pH 9.00) [M⁻¹ cm⁻¹] | λabs, max ([1]; N-nonprotonated form, pH 9.00) [nm] | λem, max ([1]; N-nonprotonated form, pH 9.00) [nm] | Φfl (fluorescence quantum yield) ([1]; N-nonprotonated form, pH 9.00) | Stokes' shift [1, 3] [nm] | ε [1, 3] [M⁻¹ cm⁻¹] | λabs, max [1, 3] [nm] | λem, max [1, 3] [nm] | Φfl (fluorescence quantum yield) [1, 3] | pKa [2] | pH-dependency of fluorescence intensity (fluorescence quantum yield) [2] | Stokes' shift [1, 4] [nm] | ε [1, 4] [M⁻¹ cm⁻¹] | λabs, max [1, 4] [nm] | λem, max [1, 4] [nm] | Φfl (fluorescence quantum yield) [1, 4]
1 | CC1=C(CCC(=O)O)C(C)=[N+]2C1=C(c1ccc(N)cc1)c1c(C)c(CCC(=O)O)c(C)n1[B-]2(F)F [Compound 3a, 1,3,5,7-Tetramethyl-2,6-bis-(2-carboxyethyl)-8-(4-aminophenyl)-4,4-difluoro-4-bora-3a,4a-diaza-s-indacene] | 17 | 71100 | 519 | 536 | 0.002 | 13 | 72100 | 520 | 533 | 0.55 | 3.8 | pH-dependency following the Henderson-Hasselbach equation |  |  |  |  | 
2 | CC1=C(CCC(=O)O)C(C)=[N+]2C1=C(c1ccc(N(C)C)cc1)c1c(C)c(CCC(=O)O)c(C)n1[B-]2(F)F [Compound 3b, 1,3,5,7-Tetramethyl-2,6-bis-(2-carboxyethyl)-8-[4-(N,N-dimethylamino)phenyl]-4,4-difluoro-4-bora-3a,4a-diaza-s-indacene] | 16 | 62300 | 519 | 535 | 0.002 | 14 | 58900 | 521 | 535 | 0.56 | 4.3 | pH-dependency following the Henderson-Hasselbach equation |  |  |  |  | 
3 | CCN(CC)c1ccc(C2=C3C(C)=C(CCC(=O)O)C(C)=[N+]3[B-](F)(F)n3c(C)c(CCC(=O)O)c(C)c32)cc1 [Compound 3c, 1,3,5,7-Tetramethyl-2,6-bis-(2-carboxyethyl)-8-[4-(N,N-diethylamino)phenyl]-4,4-difluoro-4-bora-3a,4a-diaza-s-indacene] | 17 | 64400 | 519 | 536 | 0.002 | 13 | 64100 | 521 | 534 | 0.56 | 6.0 | pH-dependency following the Henderson-Hasselbach equation |  |  |  |  | 
4 | CC1=C(CCC(=O)O)C(C)=[N+]2C1=C(c1ccccc1)c1c(C)c(CCC(=O)O)c(C)n1[B-]2(F)F [Compound 3d, 1,3,5,7-Tetramethyl-2,6-bis-(2-carboxyethyl)-8-phenyl-4,4-difluoro-4-bora-3a,4a-diaza-s-indacene, reference compound] |  |  |  |  |  |  |  |  |  |  |  |  | 14 | 73200 | 520 | 534 | 0.56
